Assays:
Test in all cases: Test B pre-/postemergence plant response
Format in all cases: in vivo
[1] = test system: blackgrass (Alopecurus myosuroides); settings: for Blackgrass plant response rating: 8 g ai/ha
Excerpt: (§1) Seeds of plant species selected from blackgrass (Alopecurus myosuroides), downy bromegrass (Bromus tectorum), green foxtail (Setaria viridis), Italian ryegrass (Lolium multiflorum), wheat (Triticum aestivum), wild oat (Avena fatua), catchweed bedstraw (Galium aparine), bermudagrass (Cynodon dactylon), surinam grass (Brachiaria decumbens), cocklebur (Xanthium strumarium), corn (Zea mays), large crabgrass (Digitaria sanguinalis), woolly cupgrass (Eriochloa villosa), giant foxtail (Setaria faberii), goosegrass (Eleusine indica), johnsongrass (Sorghum halepense), kochia (Kochia scoparia), lambsquarters (Chenopodium album), morningglory (Ipomoea coccinea), eastern black (E.B.) nightshade (Solanum ptycanthum), yellow nutsedge (Cyperus esculentus), pigweed (Amaranthus retroflexus), common ragweed (Ambrosia elation), Russian thistle (Salsola iberica), soybean (Glycine max), common (oilseed) sunflower (Helianthus annuus), and velvetleaf (Abutilon theophrasti) were planted and treated preemergence with test chemicals formulated in a non-phytotoxic solvent mixture which included a surfactant.
(§2) At the same time, plants selected from these crop and weed species and also winter barley (Hordeum vulgare), canarygrass (Phalaris minor), chickweed (Stellaria media) and windgrass (Apera spica-venti) were treated with postemergence applications of some of the test chemicals formulated in the same manner. Plants ranged in height from 2 to 18 cm (1- to 4-leaf stage) for postemergence treatments.
(§3) Plant species in the flooded paddy test consisted of rice (Oryza sativa), umbrella sedge (Cyperus difformis), ducksalad (Heteranthera limosa) and barnyardgrass (Echinochloa crus-galli) grown to the 2-leaf stage for testing. At time of treatment, test pots were flooded to 3 cm above the soil surface, treated by application of test compounds directly to the paddy water, and then maintained at that water depth for the duration of the test. Treated plants and controls were maintained in a greenhouse for 13 to 15 days, after which time all species were compared to controls and visually evaluated. Plant response ratings, summarized in Table B, are based on a scale of 0 to 100 where 0 is no effect and 100 is complete control. A dash (-) response means no test result.

[2] = test system: yellow nutsedge (Cyperus esculentus)
Excerpt: as §1, §2, §3

[3] = test system: velvetleaf (Abutilon theophrasti)
Excerpt: as §1, §2, §3

kochia (Kochia scoparia) = settings: for Kochia plant response rating: 8 g ai/ha
Excerpt: as §1, §2, §3

corn (Zea mays) = test system: corn (Zea mays)
Excerpt: as §1, §2, §3

wild oat (Avena fatua) = test system: wild oat (Avena fatua)
Excerpt: as §1, §2, §3

[4] = test system: common ragweed (Ambrosia elation)
Excerpt: as §1, §2, §3

[5] = test system: lambsquarters (Chenopodium album)
Excerpt: as §1, §2, §3

[6] = test system: downy bromegrass (Bromus tectorum); settings: for Bromegrass, Downy plant response rating: 8 g ai/ha
Excerpt: as §1, §2, §3

[7] = test system: giant foxtail (Setaria faberii)
Excerpt: as §1, §2, §3

[8] = test system: pigweed (Amaranthus retroflexus)
Excerpt: as §1, §2, §3

[9] = test system: common (oilseed) sunflower (Helianthus annuus); settings: Preemergence
Excerpt: as §1, §2, §3

[10] = test system: catchweed bedstraw (Galium aparine); settings: Preemergence; for Galium plant response rating: 8 g ai/ha
Excerpt: as §1, §2, §3

[11] = test system: woolly cupgrass (Eriochloa villosa)
Excerpt: as §1, §2, §3

[12] = Postemergence, 16 g ai/ha, scale 0 to 100
[13] = Postemergence, 31 g ai/ha, scale 0 to 100, 0 no effect, 100 complete control
[14] = Postemergence, 62 g ai/ha, scale 0 to 100, 0 no effect, 100 complete control
[15] = Preemergence, 16 g ai/ha, scale 0 to 100 (0 no effect, 100 complete control)
[16] = Preemergence, 31 g ai/ha, 0 to 100 scale, 0 no effect, 100 complete control
[17] = Preemergence, 62 g ai/ha, scale 0 to 100
[18] = 8 g ai/ha, postemergence, 0-100 scale
[19] = Preemergence, 8 g ai/ha, scale 0 to 100
[20] = 16 g ai/ha, scale 0 to 100 (0 no effect, 100 complete control)
[21] = 31 g ai/ha, 0 to 100 scale, 0 no effect, 100 complete control
[22] = Preemergence, 31 g ai/ha, scale 0 to 100 (0 no effect, 100 complete control)
[23] = Preemergence, 16 g ai/ha, scale 0 to 100

## Cc1cc(-c2ccc(Cl)cc2)nn1-c1c(OC(=O)c2cccc(Cl)c2)cnn(C)c1=O [Compound 32]
[1]; postemergence, 0-100 scale
  Blackgrass plant response rating: 30
[1]; [12]
  Plant response rating, Blackgrass: 35
[1]; [13]
  Plant response rating, Blackgrass: 70
[1]; [14]
  Plant response rating, Blackgrass: 70
[1]; [15]
  Plant response rating, Blackgrass: 85
[1]; [16]
  Plant response rating, Blackgrass: 95
[1]; [17]
  Plant response rating, Blackgrass: 98
[2]; [18]
  Nutsedge, Yellow plant response rating: 0
[2]; [12]
  Plant response rating, Nutsedge, Yellow: 0
[2]; [13]
  Plant response rating, Nutsedge, Yellow: 0
[2]; [14]
  Plant response rating, Nutsedge, Yellow: 0
[2]; [15]
  Plant response rating, Nutsedge, Yellow: 0
[2]; [16]
  Plant response rating, Nutsedge, Yellow: 0
[2]; [17]
  Plant response rating, Nutsedge, Yellow: 0
[2]; [19]
  Nutsedge, Yellow plant response rating: 0
[3]; [18]
  Velvetleaf plant response rating: 0
[3]; [12]
  Plant response rating, Velvetleaf: 0
[3]; [14]
  Plant response rating, Velvetleaf: 0
[3]; [15]
  Plant response rating, Velvetleaf: 0
[3]; [16]
  Plant response rating, Velvetleaf: 0
[3]; [17]
  Plant response rating, Velvetleaf: 0
[3]; [19]
  Velvetleaf plant response rating: 0
Kochia (Kochia scoparia); postemergence, 0-100 scale
  Kochia plant response rating: 0
Kochia (Kochia scoparia); [12]
  Plant response rating, Kochia: 0
Kochia (Kochia scoparia); [13]
  Plant response rating, Kochia: 0
Kochia (Kochia scoparia); [14]
  Plant response rating, Kochia: 0
Kochia (Kochia scoparia); [15]
  Plant response rating, Kochia: 0
Kochia (Kochia scoparia); [16]
  Plant response rating, Kochia: 0
Kochia (Kochia scoparia); [17]
  Plant response rating, Kochia: 0
Kochia (Kochia scoparia); Preemergence, scale 0 to 100
  Kochia plant response rating: 0
Corn (Zea mays); [18]
  Corn plant response rating: 0
Corn (Zea mays); [12]
  Plant response rating, Corn: 0
Corn (Zea mays); [13]
  Plant response rating, Corn: 0
Corn (Zea mays); [14]
  Plant response rating, Corn: 0
Corn (Zea mays); [15]
  Plant response rating, Corn: 45
Corn (Zea mays); [16]
  Plant response rating, Corn: 60
Corn (Zea mays); [17]
  Plant response rating, Corn: 95
Corn (Zea mays); [19]
  Corn plant response rating: 0
Wild oat (Avena fatua); [18]
  Oat, Wild plant response rating: 60
Wild oat (Avena fatua); [12]
  Plant response rating, Oat, Wild: 85
Wild oat (Avena fatua); [13]
  Plant response rating, Oat, Wild: 95
Wild oat (Avena fatua); [14]
  Plant response rating, Oat, Wild: 95
Wild oat (Avena fatua); [15]
  Plant response rating, Oat, Wild: 0
Wild oat (Avena fatua); [16]
  Plant response rating, Oat, Wild: 60
Wild oat (Avena fatua); [17]
  Plant response rating, Oat, Wild: 80
Wild oat (Avena fatua); [19]
  Oat, Wild plant response rating: 0
[4]; [18]
  Ragweed plant response rating: 0
[4]; [12]
  Plant response rating, Ragweed: 0
[4]; [13]
  Plant response rating, Ragweed: 0
[4]; [14]
  Plant response rating, Ragweed: 0
[4]; [15]
  Plant response rating, Ragweed: 0
[4]; [16]
  Plant response rating, Ragweed: 0
[4]; [17]
  Plant response rating, Ragweed: 0
[4]; [19]
  Ragweed plant response rating: 0
[5]; [18]
  Lambsquarters plant response rating: 0
[5]; [12]
  Plant response rating, Lambsquarters: 0
[5]; [13]
  Plant response rating, Lambsquarters: 0
[5]; [14]
  Plant response rating, Lambsquarters: 0
[5]; [15]
  Plant response rating, Lambsquarters: 0
[5]; [16]
  Plant response rating, Lambsquarters: 0
[5]; [17]
  Plant response rating, Lambsquarters: 0
[5]; [19]
  Lambsquarters plant response rating: 0
[6]; postemergence, 0-100 scale
  Bromegrass, Downy plant response rating: 5
[6]; [12]
  Plant response rating, Bromegrass, Downy: 10
[6]; [13]
  Plant response rating, Bromegrass, Downy: 45
[6]; [14]
  Plant response rating, Bromegrass, Downy: 60
[6]; [15]
  Plant response rating, Bromegrass, Downy: 0
[6]; [16]
  Plant response rating, Bromegrass, Downy: 0
[6]; [17]
  Plant response rating, Bromegrass, Downy: 75
[6]; Preemergence, scale 0 to 100
  Bromegrass, Downy plant response rating: 0
[7]; [18]
  Foxtail, Giant plant response rating: 75
[7]; [12]
  Plant response rating, Foxtail, Giant: 80
[7]; [13]
  Plant response rating, Foxtail, Giant: 98
[7]; [14]
  Plant response rating, Foxtail, Giant: 100
[7]; [15]
  Plant response rating, Foxtail, Giant: 95
[7]; [16]
  Plant response rating, Foxtail, Giant: 100
[7]; [17]
  Plant response rating, Foxtail, Giant: 100
[7]; [19]
  Foxtail, Giant plant response rating: 85
[8]; [18]
  Pigweed plant response rating: 0
[8]; [12]
  Plant response rating, Pigweed: 0
[8]; [13]
  Plant response rating, Pigweed: 0
[8]; [14]
  Plant response rating, Pigweed: 0
[8]; [15]
  Plant response rating, Pigweed: 0
[8]; [16]
  Plant response rating, Pigweed: 0
[8]; [17]
  Plant response rating, Pigweed: 0
[8]; [19]
  Pigweed plant response rating: 0
[9]; [20]
  Plant response rating, Sunflower: 0
[9]; [21]
  Plant response rating, Sunflower: 0
[9]; 62 g ai/ha, scale 0 to 100
  Plant response rating, Sunflower: 0
[9]; 8 g ai/ha, scale 0 to 100
  Sunflower plant response rating: 0
[10]; [20]
  Plant response rating, Galium: 0
[10]; [21]
  Plant response rating, Galium: 0
[10]; 62 g ai/ha, scale 0 to 100
  Plant response rating, Galium: 0
[10]; scale 0 to 100
  Galium plant response rating: 0
[11]; [18]
  Cupgrass, Woolly plant response rating: 75
[11]; [12]
  Plant response rating, Cupgrass, Woolly: 85
[11]; [13]
  Plant response rating, Cupgrass, Woolly: 100
[11]; [14]
  Plant response rating, Cupgrass, Woolly: 100
[11]; [15]
  Plant response rating, Cupgrass, Woolly: 70
[11]; [16]
  Plant response rating, Cupgrass, Woolly: 80
[11]; [17]
  Plant response rating, Cupgrass, Woolly: 85
[11]; [19]
  Cupgrass, Woolly plant response rating: 55

## Cc1cc(-c2ccc(Cl)cc2)nn1-c1c(OS(=O)(=O)c2ccc(Cl)s2)cnn(C)c1=O [Compound 55]
[1]; [15]
  Plant response rating, Blackgrass: 80
[1]; [16]
  Plant response rating, Blackgrass: 100
[1]; [17]
  Plant response rating, Blackgrass: 100
[1]; Preemergence, scale 0 to 100
  Blackgrass plant response rating: 0
[2]; [22]
  Plant response rating, Nutsedge, Yellow: 0
[2]; [17]
  Plant response rating, Nutsedge, Yellow: 0
[2]; [19]
  Nutsedge, Yellow plant response rating: 0
[2]; [23]
  Nutsedge, Yellow plant response rating: 0
[3]; [22]
  Plant response rating, Velvetleaf: 0
[3]; Preemergence, 62 g ai/ha, 0 to 100 scale, 0 no effect, 100 complete control
  Plant response rating, Velvetleaf: 0
[3]; [19]
  Velvetleaf plant response rating: 0
[3]; [23]
  Velvetleaf plant response rating: 0
Corn (Zea mays); [16]
  Plant response rating, Corn: 80
Corn (Zea mays); [17]
  Plant response rating, Corn: 95
Corn (Zea mays); [19]
  Corn plant response rating: 0
Corn (Zea mays); [23]
  Corn plant response rating: 0
Wild oat (Avena fatua); [22]
  Plant response rating, Oat, Wild: 35
Wild oat (Avena fatua); [17]
  Plant response rating, Oat, Wild: 70
Wild oat (Avena fatua); [19]
  Oat, Wild plant response rating: 0
Wild oat (Avena fatua); [23]
  Oat, Wild plant response rating: 0
[4]; [22]
  Plant response rating, Ragweed: 0
[4]; [17]
  Plant response rating, Ragweed: 0
[4]; [19]
  Ragweed plant response rating: 0
[4]; [23]
  Ragweed plant response rating: 0
[5]; [16]
  Plant response rating, Lambsquarters: 0
[5]; [17]
  Plant response rating, Lambsquarters: 0
[5]; [19]
  Lambsquarters plant response rating: 0
[5]; [23]
  Lambsquarters plant response rating: 0
[6]; [15]
  Plant response rating, Bromegrass, Downy: 0
[6]; [16]
  Plant response rating, Bromegrass, Downy: 30
[6]; [17]
  Plant response rating, Bromegrass, Downy: 60
[6]; Preemergence, scale 0 to 100
  Bromegrass, Downy plant response rating: 0
[7]; [16]
  Plant response rating, Foxtail, Giant: 100
[7]; [17]
  Plant response rating, Foxtail, Giant: 100
[7]; [19]
  Foxtail, Giant plant response rating: 90
[7]; [23]
  Foxtail, Giant plant response rating: 98
[8]; [22]
  Plant response rating, Pigweed: 0
[8]; [17]
  Plant response rating, Pigweed: 0
[8]; [19]
  Pigweed plant response rating: 0
[8]; [23]
  Pigweed plant response rating: 0
[9]; 31 g ai/ha, scale 0 to 100 (0 no effect, 100 complete control)
  Plant response rating, Sunflower: 0
[9]; 62 g ai/ha, scale 0 to 100
  Plant response rating, Sunflower: 0
[9]; 8 g ai/ha, scale 0 to 100
  Sunflower plant response rating: 0
[9]; 16 g ai/ha, scale 0 to 100
  Sunflower plant response rating: 0
[10]; [21]
  Plant response rating, Galium: 0
[10]; 62 g ai/ha, scale 0 to 100
  Plant response rating, Galium: 0
[10]; scale 0 to 100
  Galium plant response rating: 0
[11]; [16]
  Plant response rating, Cupgrass, Woolly: 100
[11]; [17]
  Plant response rating, Cupgrass, Woolly: 100
[11]; [19]
  Cupgrass, Woolly plant response rating: 15
[11]; [23]
  Cupgrass, Woolly plant response rating: 80

— US20100267561A1, “HERBICIDAL PYRIDAZINONE DERIVATIVES” (priority 2007, published 2010)
